Assay results as given in US6864086B2, “Nitric oxide-scavenging system for culturing oocytes, embryos, or other cells” (Board of Supervisors of Louisiana State University and …, priority 1998, dated 2005).

Experiments:
[1] = tested on: 8-cell bovine embryos cultured singly; assay: Example 7: Hb (1 μg/ml) in mBECM-S, 8-cell embryos derived from Hb-containing co-culture, cultured singly; format: cell-based
Experimental: mBECM containing 10 μM β-mercaptoethanol was used to culture embryos, as described in J. Lim et al., “Roles of growth factors in the development of bovine embryos fertilized in vitro and cultured singly in a defined medium,” Reprod. Fertil. Dev., 8, 1199-1205 (1996). To culture individual 8-cell embryos we used mBECM supplemented with 1 ng/ml platelet derived growth factor type AB (PDGF; Upstate Biotechnology Inc., Lake Placid, N.Y.), 1 ng/ml transforming growth factor-β (TGF; R & D System, Minneapolis, Minn.), 50 ng/ml arachidonic acid (AA; Cayman Chemical Co., Ann Arbor, Mich.), 100 μM glutathione (GSH; Sigma Co.) and 1 mg/ml polyvinyl alcohol (PVA) (mBECM-S). mBECM to which 10% (v/v) FBS was added (mBECM-C) was used for co-culturing inseminated zygotes with CGs and for producing 8-cell embryos. Osmolarity of the medium was maintained within the range of 265-290 mOsm.
The bovine cumulus-oocyte complexes (COCs) used were collected in Madison, Wis. (BOMED, Inc.), and were shipped in 2-ml of maturation medium in a battery powered incubator via overnight express mail service. Oocytes matured during transit and arrived within 24 h after exposure to maturation medium, pre-equilibrated at 39° C. in 5% CO2 in air. At 22-24 h after exposure to the medium, the COCs were inseminated in vitro as described in J. Lim et al., “Intracytoplasmic glutathione concentration and the role of β-mercaptoethanol in preimplantation development of bovine embryos,” Theriogenology, 46, 429-439 (1996). At 18 h post-insemination, COCs were cultured in groups (30-35 embryos) in a 4-well multidish (Nunc, Roskilde, Denmark) containing 0.8-ml of mBECM-C. Embryos were dislodged from CGs at 36-48 h post-insemination.
In Example 1, embryos (83-85 per group) collected 18 h post-insemination were cultured in mBECM-C, to which 0, 0.008, or 0.04 mM SNP was added at 18 or 60 h post-insemination. In Example 2, 8-cell embryos (80 per group) were produced in a co-culture system containing CGs and mBECM-C, and then beginning at 60 h post-insemination were cultured singly in a defined culture medium (mBECM-S), to which 0, 0.0016, 0.008, or 0.04 mM of SNP (S-0501, Sigma Co.) was added. In Example 3 embryos, either uncleaved (n=99) or developed to the 2-cell stage (90), were collected 48 h post-insemination; and cleaved embryos, either developed to the morula stage (69) or degenerate (63) were collected 144 h post-insemination. NO metabolites were then measured in the embryos. In Example 4, three groups of 95 zygotes each were co-cultured with CGs in mBECM-C, to which 0, 1, or 10 μg/ml Hb (bovine, mainly methemoglobin, H-2500, Sigma Co.) was added. […] Inseminated oocytes (104 per group) were co-cultured with CGs in MBECM-C up to 192 h post-insemination; and Hb (1 μg/ml) was added to the medium at 18, 60, or 144 h post-insemination. In Example 6, inseminated oocytes (93 per group) were cultured in the presence or absence of CGs in mBECM-C to which either 0 or 1 μg/ml Hb was added. […]
Oocytes or 8-cell embryos were randomly and equally allocated to each treatment group. In Examples 1, 2, and 4-7, oocytes or embryos that had developed to the 2-cell, 8-cell, >8-cell, 16-cell morula, and blastocyst stages were individually scored ‘1’ (developed) at 48, 60, 96, 120, 144 and 192 h post-insemination, respectively. […] Sums of the scores in each stage of development were evaluated by analysis of variance (ANOVA) using the general linear model (PROC-GLM) in the SAS program software. […]

bovine blastocysts = assay: Example 8 supplemental: blastocyst cell number by Hoechst 33342 stain; format: cell-based; details: 8 days after insemination; Hb 1 μg/ml added to culture medium; vs. 124.2±8.4
Experimental: In Example 8, bovine follicular oocytes were collected from November 1996 to May 1997, and matured and fertilized in culture. (Oocytes collected during summer and early fall were not used in this study, to avoid interference from environmental heat stress on in vitro survival of embryos.) IVF embryos were collected at 18 h post-insemination and cultured in mBECM supplemented with FBS (10%, v/v), to which 0 or 1 μg/ml Hb (from bovine, mainly methemoglobin, H-2500, Sigma Co.) was added. Development of embryos to the 2-cell, 8-cell, 16-cell, morula, and blastocyst stages was monitored 48, 60, 120, 144 and 192 h post-insemination, respectively. As a supplemental experiment, some blastocysts in each treatment (20 or 28) were randomly collected, and the cell number of the blastocysts was counted by use of Hoechst stain 33342 and a fluorescent microscope (Diaphod, Nikkon, Tokyo, Japan). This experiment used 1675 embryos in 25 replicates, with IVF embryos randomly allotted among treatments.

hemoglobin [Hb]
Number of embryos developed to >8-cell ([1]; Hb 1 μg/ml present in mBECM-S, 100 8-cell embryos, examined 96 h): 68 | Number of embryos developed to 16-cell ([1]; Hb 1 μg/ml present in mBECM-S, 100 8-cell embryos, examined 120 h): 44 | Number of embryos developed to Morula ([1]; Hb 1 μg/ml present in mBECM-S, 100 8-cell embryos, examined 144 h): 26 | Number of embryos developed to Blastocyst ([1]; Hb 1 μg/ml present in mBECM-S, 100 8-cell embryos, examined 192 h): 8 | effect on proportions of 8-cell embryos developing to each embryonic stage ([1]; Hb added to mBECM-S, P>0.09): no significant effect | number of blastocyst cells (bovine blastocysts): 128.6±7.1
